Results on three molecules are retold here after patent US9187439B2, “Tricyclic compounds useful as neurogenic and neuroprotective agents” (INCEPTION 1, INC., priority 2011, dated 2015).

In test [1] the test system is SH-SY5Y human neuroblastoma cells. In words: In vitro human SHSY5Y survival assay (neuronal survival assay). Type of test: cell-based. The note with it: n=2. As to the method: In Vitro Human SHSY5Y Survival Assay
In order to determine if compounds effect cell survival, we tested them in an in vitro assay using the human neuroblastoma cell line SH-SY5Y. SH-SY5Y human neuroblastoma cells treated with retinoic acid for 5 days produce a homogeneous population of neuronal differentiated cells that are strictly dependant on BDNF for their survival. SH-SY5Y cells are plated on 96-well collagen coated plates and incubated for 24 hours. Retinoic acid is then added and incubated on the cells for 5 days. After 5 days, media with retinoic acid is removed and replaced with serum free media+/−compound. Each plate includes basal media (negative) and BDNF (positive) controls. The cells are then fixed with paraformaldehyde (3.7%) and stained with the nuclear marker Hoechst and the neuronal marker beta-Tubulin III. The plate is imaged using the In Cell Analyzer 2000™. Each well is imaged in 9 different spots throughout the well. The images are analyzed with a custom-designed algorithm using the In Cell Developer™ software. Data is averaged per compound concentration and calculated as a background subtracted percent of positive control.

For test [2], the target named is T1, Recombinant GST-Bax protein (Homo sapiens, UniProt Q07812).
T1 construct: purchased Abnova
In words: BAX liposome assay. Type of test: biochemical. As to the method: Inhibition of BAX oligomerization and pore formation was evaluated using a liposome assay preparation. To do so, 30% 1,2-dioleoyl-sn-glycero-3-phosphate and 70% 1,2-dioleoyl-sn-glycero-3-phosphocholine (Avanti Polar Lipids, Alabaster, Ala.) were mixed in chloroform followed by evaporation at 37° C. under nitrogen (Saito et al., 2000). Liposomes were then rehydrated with agitation in buffer containing 50 mM 10 kD-dextran carboxyfluorescein (dextran-CF, Invitrogen, Carlsbad, Calif.), 100 mM KCl, 1 mM EDTA and 20 mM HEPES at pH 7.4. Liposomes were then sized using 5 freeze-thaw cycles, 5 minutes in a sonication bath, followed by 3 passages through a 5 μm syringe filter and 5 passages through a 0.2 μm syringe filter. Free dextran-CF was removed by Sepharose S-300 size exclusion chromatography (GE Healthcare, Piscataway, N.J.). Recombinant GST-Bax protein (Abnova, Taipei, Taiwan) was activated by incubating for 30 minutes in 2% octyglucoside in the presence or absence of compound X in a 96-well plate. Liposomes were then added to the activated GST-Bax (final concentration 10 nM). Carboxyfluorescein release from liposomes was measured by excitation with 497 nm light and the […] monitored for 15 minutes.

Test [3] deals with mitochondria isolated from HeLa cells. In words: HeLa cytochrome C release assay. Type of test: biochemical. The following applies: at a concentration of 10 μM; release initiated with t-Bid 25 nM. As to the method: HeLa Cytochrome C Release Assay
Inhibition of the pro-apoptotic protein cytochorome C by a compound of Formula I (and/or a compound of any of the other formulae described herein), was evaluated in mitochondria isolated from HeLa cells. In the assay, 10-20 million HeLa cells were resuspended in assay buffer (70 mM sucrose; 230 mM mannitol; 1 mM EDTA; 5 mM HEPES, pH 7 with KOH) containing protease inhibitor cocktail (Sigma P-8340) and treated with 1.5 μg/million cells digitonin for 5 minutes at 4° C. Cells were pelleted by centrifugation and washed twice with assay buffer containing 0.5% BSA. Cells were resuspended in assay buffer and homogenized with a Dounce homogenizer (60 strokes) on ice. Intact cells were removed by centrifugation (1000×g, 10 min) and the supernatant centrifuged (8,500×g, 10 min) The mitochondrial pellet was resuspended in assay buffer to achieve a protein concentration of 0.333 μg/ml. 15 μl of Test compound (at 5× dilution) was combined with 45 μl mitochondria and incubated for 15 min at RT. Cytochrome C release was initiated with 15 μl t-Bid (final conc=25 nM) and the reaction continued for 30 min at RT. Samples were then centrifuged (12,000×g, 10 min) and 50 μl of the supernatant analyzed for cytochrome C content by ELISA (R & D Systems, #DCTCO).

T1 sequence (Q07812 whole entry): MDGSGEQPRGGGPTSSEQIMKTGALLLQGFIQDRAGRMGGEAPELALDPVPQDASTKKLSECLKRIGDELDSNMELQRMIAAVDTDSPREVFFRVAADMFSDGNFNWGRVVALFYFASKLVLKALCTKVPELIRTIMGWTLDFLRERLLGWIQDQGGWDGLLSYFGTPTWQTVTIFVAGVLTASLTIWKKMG

The molecule `OC(CN1CC2(COC2)C1)CN1c2ccccc2Sc2ccc(C(F)(F)F)cc21` (racemic) [Example 1, (±)-1-(2-oxa-6-azaspiro[3.3]heptan-6-yl)-3-(2-(trifluoromethyl)-10H-phenothiazin-10-yl)propan-2-ol] came in with an EC50 in test [1] of 0.509 µM. In test [2], the concentration for half-maximal inhibition (IC50) was 24.6 µM.
On to `OC(CN1CC2(CNC2)C1)CN1c2ccccc2Sc2ccc(C(F)(F)F)cc21` (racemic) [Example 3, (±)-1-(2,6-diazaspiro[3.3]heptan-2-yl)-3-(2-(trifluoromethyl)-10H-phenothiazin-10-yl)propan-2-ol], for which, in test [3], the “inhibition of cytochrome C release” value is on record as 93%.
Same read-out and setting: the value for `FC(F)(F)c1ccc2c(c1)N(CCCN1CC3(CNC3)C1)c1ccccc1S2` [Example 4, 10-(3-(2,6-diazaspiro[3.3]heptan-2-yl)propyl)-2-(trifluoromethyl)-10H-phenothiazine] was 27%.
